Assay results reported in patent publication US10206944B2, “Chondroitin for use in medicine” (ALTERGON S.A., priority 2012, dated 2019).

How the values were obtained:
[1] = test system: HaCat cells; experiment: Wound-healing test by time-lapse microscopy (keratinocyte growth); type: cell-based, human; conditions: for time to wound repair (closure of the cut): HaCat confluent layer with cut, time-lapse, control closes after 40 h; for effect on the repair process: concentration of 0.1 w/v
Experimental: HaCat cells, an immortalised cell line of human keratinocytes, are used as model system. The HaCat cells are grown and amplified in Dulbecco's Modified Eagle Medium (DMEM) containing 10% foetal bovine serum (FBS)+1% Pen-Strep solution (10,000 units of penicillin-G/mL and 10 mg of streptomycin/mL in saline solution) in an incubator for cell cultures (37° C., 5% CO2 in humid air). The wound-healing experiments are conducted by time-lapse optical microscopy, a technique that allows cell behaviour to be monitored for lengthy times (2-4 days) in terms of adhesion, proliferation and motility. The system consists of an inverted optical microscope (Zeiss Axiovert 200), a thermostatic bath (LAUDA Ecoline), a CO2 microincubator with geometry such as to house plates of variable dimensions (from 6 to 96 wells), and a control unit for the output gases (air and CO2). The instrument is also equipped with a digital video camera and a control motor, which allows the incubator to move along directions x, y and z so that the images selected by the operator can be recorded and acquired at pre-set intervals.
The system thus assembled allows the cells to be maintained in an environment that reproduces the optimum conditions for cell growth (atmosphere with 5% v/v of CO2 in humid air and temperature of 37±0.1° C.), and monitored throughout the experiment. The system is also equipped with software which allows accurate analysis of the images. In particular, the instrumentation is equipped with automated software which allows wound repair to be calculated in wound-healing tests and provides data about the repair rate and cell migration rate, which are important parameters for evaluating the biorevitalising effect of substances that can accelerate or inhibit wound repair in vitro. […]

[2] = test system: Collagen Type I; experiment: Real-Time PCR gene expression in human chondrocytes: type I collagen; type: cell-based; conditions: for Fold Expression, Collagen Type I: 1% w/v, ratio to untreated control
Experimental: To evaluate the biological effects of chondroitin on human chondrocyte cultures, the expression of a set of genes considered key to establishing the phenotype, and suitable markers for evaluating the quality of the tissue generated, was determined. The study was conducted on chondrocytes prepared from human cartilage, as reported in Example 2, the cells being grown in the presence of chondroitin or chondroitin sulphate. Using a standard procedure, 5*10^4 cells per well were seeded in a 24-well multiwell plate. The chondrocytes were grown in DMEM containing 1% w/v of chondroitin or chondroitin sulphate (endotoxin content ≤0.1 EU/mg). The cells were stimulated for 4, 7 and 10 days (Ishak et al., International J. of Pediatric Otorhinolaryngology, 2011, 75: 835-840), after which the RNA was extracted with Trizol Reagent, as described in the kit manual (Life Technologies Ltd, Milan, Italy). A qualitative morphological analysis of the cell culture was also conducted at the various times, in parallel with RNA extraction, by observing the corresponding samples at 4, 7 and 10 days under the optical microscope. The cells seeded at the three different times were observed under the microscope, and the images that best represented the cell growth conditions were acquired using a time-lapse videomicroscopy workstation. After RNA extraction, reverse transcription was performed with a total of 1 μg RNA and then with amplification by Real-Time PCR of genes which are specific markers for chondrocytes (Table 3).
Genes connected with matrix production, such as aggrecan, type I collagen, type II collagen and the Sox9 gene, the expression of which is closely correlated with the expression of type II collagen, were analysed as specific markers for differentiation and characterisation of chondrocytes. (Akiyama H., Mod Rheumatol., 2008, 18(3): 213-9; Yang et al., J. of Orthopaedic Res. 2011).
The gene expression of said markers on human chondrocytes cultured in basic medium (control) and with chondroitin treatment (C) or chondroitin sulphate treatment (CS) was analysed on cell cultures in the second and third growth phases.
The results of the gene expression analysis were reported as the average of at least 3 independent experiments for tests conducted in the presence of C or CS, on cells in phases 2 and 3.

Row | Substance | time to wound repair (closure of the cut) [1] | effect on the repair process [1] | Fold Expression, Collagen Type I ([2]; phase II, 4 g) | Fold Expression, Collagen Type I ([2]; phase II, 7 g) | Fold Expression, Collagen Type I ([2]; phase II, 10 g) | Fold Expression, Collagen Type I ([2]; phase III, 4 g) | Fold Expression, Collagen Type I ([2]; phase III, 7 g) | Fold Expression, Collagen Type I ([2]; phase III, 10 g) | reduction in expression of type I collagen ([2]; growth phase 2, long incubation times, versus control) [%]
1 | chondroitin | less than 20 h | accelerates the repair process | 1.23 ± 0.29 | 1.03 ± 0.52 | 0.67 ± 0.20 | 0.24 ± 0.01 | 0.85 ± 0.49 | 0.59 ± 0.13 | 30
2 | chondroitin sulphate [CS, reference compound] | > 70 h | slows it | 1.20 ± 0.56 | 1.44 ± 0.08 | 1.36 ± 0.05 | 0.34 ± 0.01 | 2.42 ± 0.88 | 1.09 ± 0.45 | –
